Data set [1] in a line: Metabolic stability in rat liver microsomes assessed as parent compound remaining incubated for 10 mins in presence of NADPH. It counts as ADME, Microsome. To be noted: read-out: Stabilty.
Data set [2] in a line: Toxicity activity in Sprague-Dawley rat model of acute pressure-volume loop model assessed as change in blood pressure at 10 mg/kg/min administered as iv infusion for 15 mins relative to control. The class given is organism-based. To be noted: in vivo, 0.25 h.
A short description of data set [3]: Permeability of the compound at pH 7.4 by PAMPA. The class given is ADME. The following applies: read-out: permeability. For orientation: In PAMPA a lipid-coated filter parts donor from acceptor wells.
The target of data set [4] is T1, Apelin receptor (Homo sapiens, UniProt P35414).
T1 sequence (P35414 whole entry): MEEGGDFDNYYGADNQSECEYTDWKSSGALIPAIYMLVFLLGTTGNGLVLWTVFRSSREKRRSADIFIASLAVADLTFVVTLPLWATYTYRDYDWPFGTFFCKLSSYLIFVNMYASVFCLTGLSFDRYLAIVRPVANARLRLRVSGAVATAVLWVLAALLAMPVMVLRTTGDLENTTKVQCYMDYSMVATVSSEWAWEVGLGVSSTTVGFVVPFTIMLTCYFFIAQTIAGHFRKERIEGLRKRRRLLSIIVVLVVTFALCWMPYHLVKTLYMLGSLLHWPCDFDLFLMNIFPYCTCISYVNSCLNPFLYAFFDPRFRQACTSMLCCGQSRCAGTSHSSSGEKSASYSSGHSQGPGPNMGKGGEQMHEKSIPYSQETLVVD
The data set is described as follows: Agonist activity at human APJ receptor assessed as effect on cAMP accumulation by cAMP-Glo assay. The class given is functional.

Data set [5] can be described thus: Metabolic stability in mouse liver microsomes assessed as parent compound remaining incubated for 10 mins in presence of NADPH. The class given is ADME, Microsome. To be noted: read-out: Stabilty. For orientation: Microsomes from liver hold many membrane-bound enzymes, among them those of drug oxidation.
The nature of data set [6]: Half life in rat at 1 mg/kg, po. The class given is ADME, organism-based. The following applies: in vivo.
Data set [7] can be described thus: Metabolic stability in human liver microsomes assessed as parent compound remaining incubated for 10 mins in presence of NADPH. The class given is ADME, Microsome. To be noted: read-out: Stabilty.
The nature of data set [8]: Cmax in cynomolgus monkey at 3 mg/kg, po. The class given is ADME, organism-based, Macaca fascicularis. Set-up: route oral, dose 3 mg/kg. The following applies: in vivo.
Data set [9] can be described thus: Plasma concentration in Sprague-Dawley rat model of acute pressure-volume loop model assessed as free fraction at 10 mg/kg/min administered as iv infusion for 15 mins. The class given is ADME, organism-based. The following applies: in vivo, 0.25 h.
In data set [10] the test system is Rattus norvegicus. The data set is described as follows: Hemodynamic activity in Sprague-Dawley rat model of acute pressure-volume loop model assessed as increase in dP/dT at 10 mg/kg/min administered as iv infusion for 15 mins relative to control. It counts as functional. The following applies: 0.25 h.
The nature of data set [11]: Permeability of the compound at pH 5.5 by PAMPA. To be noted: read-out: permeability. It counts as ADME.
The test system of data set [12] is Rattus norvegicus. The data set is described as follows: Hemodynamic activity in Sprague-Dawley rat model of acute pressure-volume loop model assessed as increase in cardiac output at 10 mg/kg/min administered as iv infusion for 15 mins relative to control. To be noted: 0.25 h. The class given is functional.
Data set [13] in a line: Plasma concentration in Sprague-Dawley rat model of acute pressure-volume loop model at 10 mg/kg/min administered as iv infusion for 15 mins. The class given is ADME, organism-based.
The nature of data set [14]: Plasma concentration in Sprague-Dawley rat model of acute pressure-volume loop model assessed as free fraction at 10 mg/kg/min administered as iv infusion for 5 mins. The class given is ADME, organism-based. To be noted: in vivo.
The nature of data set [15]: in vivo. To be noted: cynomolgus monkey, po, 3 mg/kg.
Description: AUC (0 to infinity) in cynomolgus monkey at 3 mg/kg, po
Data set [16] is described as follows: in vivo. To be noted: rat, po, 1 mg/kg.
Data set [17] has as its target T2, Apelin receptor (Rattus norvegicus, UniProt Q9JHG3).
T2 sequence (Q9JHG3 whole entry): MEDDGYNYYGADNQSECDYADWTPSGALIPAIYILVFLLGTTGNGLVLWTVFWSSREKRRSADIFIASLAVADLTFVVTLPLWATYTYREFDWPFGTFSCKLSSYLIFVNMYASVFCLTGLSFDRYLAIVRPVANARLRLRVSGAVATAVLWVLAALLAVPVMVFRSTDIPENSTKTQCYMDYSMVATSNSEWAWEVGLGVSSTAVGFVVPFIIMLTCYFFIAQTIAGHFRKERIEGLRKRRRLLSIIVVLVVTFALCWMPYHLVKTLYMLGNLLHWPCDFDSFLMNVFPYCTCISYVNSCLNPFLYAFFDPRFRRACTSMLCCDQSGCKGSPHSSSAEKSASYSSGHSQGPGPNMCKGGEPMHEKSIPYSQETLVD
The data set is described as follows: Agonist activity at rat APJ receptor assessed as effect on cAMP accumulation by cAMP-Glo assay. The class given is functional. (In general: cAMP levels reflect the balance of adenylyl cyclase and phosphodiesterase activity.)

A short description of data set [18]: Cmax in rat at 1 mg/kg, po. It counts as ADME, organism-based. More on the design: route oral, dose 1 mg/kg. The following applies: in vivo.
The nature of data set [19]: Toxicity activity in Sprague-Dawley rat model of acute pressure-volume loop model assessed as change in heart rate at 10 mg/kg/min administered as iv infusion for 15 mins relative to control. The following applies: in vivo, 0.25 h. The class given is organism-based.
Data set [20] in a line: Plasma concentration in Sprague-Dawley rat model of acute pressure-volume loop model at 10 mg/kg/min administered as iv infusion for 5 mins. The class given is ADME, organism-based.
For data set [21], the target named is T3, Apelin receptor (Mus musculus, UniProt Q9WV08).
T3 sequence (Q9WV08 whole entry): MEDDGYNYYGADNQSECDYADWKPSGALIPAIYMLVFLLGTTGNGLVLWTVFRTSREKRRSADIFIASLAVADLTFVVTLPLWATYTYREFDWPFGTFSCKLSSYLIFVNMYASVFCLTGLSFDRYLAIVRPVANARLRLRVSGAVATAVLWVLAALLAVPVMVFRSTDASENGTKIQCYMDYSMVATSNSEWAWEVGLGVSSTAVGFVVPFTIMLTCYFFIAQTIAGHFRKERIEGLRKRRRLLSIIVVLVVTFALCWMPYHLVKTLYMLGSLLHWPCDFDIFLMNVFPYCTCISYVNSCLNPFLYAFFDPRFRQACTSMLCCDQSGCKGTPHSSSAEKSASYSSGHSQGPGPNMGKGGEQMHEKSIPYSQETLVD
The data set is described as follows: Agonist activity at mouse APJ receptor assessed as effect on cAMP accumulation by cAMP-Glo assay.

Take `CCCCc1nc(=O)c(S(=O)(=O)c2ccc(C3CC3)cc2)c(O)n1-c1c(OC)cccc1OC`: the remaining at 10 min in [1] was 59%; in data set [5], 93%; in [7], 95%. Further, the Activity result in data set [2] was “Non-Toxic”; in the data set on Rattus norvegicus [10], 14%; in the data set on Rattus norvegicus [12], 11%; in [19], “Non-Toxic”. The figures for the Papp in data set [3] and in data set [11] were 2.2 ×10⁻⁶ cm/s and 61.5 ×10⁻⁶ cm/s, respectively. Moreover, the EC50 (commonly the concentration at which the effect is half-maximal) on Apelin receptor [4] was 20 pM; on Apelin receptor [17], 60 pM; at Apelin receptor [21], 30 pM. The half-life (as a rule, the time needed for the level to fall by half in the phase considered) in data set [6] was 5.6 h. The Cmax – broadly, the peak of the concentration-time curve – was found to be 1500 nM in [8] and 6200 nM in [18]. The “Cp(f)” value in data set [9] is recorded as 12 nM; in [14], 5.2 nM. In [13], this compound registered a concentration at 0.25 h of 5800 nM. The AUC(0-inf) (usually total exposure, with the tail of the curve extrapolated) in the data set “in vivo [15]” was 4.7 µM·h; in “in vivo [16]”, 3.9 µM·h. This compound also returned a concentration at 5 min in data set [20] of 2600 nM.

(Values after ChEMBL document CHEMBL4808235, “Identification of 6-hydroxy-5-phenyl sulfonylpyrimidin-4(1H)-one APJ receptor agonists” (Bioorg Med Chem Lett, 2021).)
